Experimental data taken from patent US10052331B2, “3-(3H-imidazo[4,5-C]pyridin-2-yl)-1H-pyrazolo[3,4-C]pyridine and therapeutic uses thereof” (Samumed, LLC, priority 2014, dated 2018).

Assays:
Format in all cases: cell-based
[1] = tested on: Wnt activity (Wnt-responsive Sp5 promoter-luciferase reporter in SW480 cells); assay: Wnt activity screening assay: Sp5-Luc reporter gene in SW480 colon carcinoma cells; conditions: Homo sapiens
In short: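 IC50 values come from variable-slope four-parameter fits of luciferase signal normalized to DMSO wells. Stable Sp5-Luc reporter SW480 colon carcinoma cells were exposed to compounds in a 3-fold dilution series (source plates from 10 mM stock) for forty-two hours at 37 °C.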

[2] = tested on: primary human mesenchymal stem cells (hMSCs); assay: Chondrogenesis induction in primary human mesenchymal stem cells (nodule imaging, Rhodamine B/Nile Red); conditions: 144 h, 6 days; for EC (100% TGF-beta3 activity): concentration required to induce chondrogenesis equivalent to TGF-β3 positive control, read-out: Conc (nM) of 100% TGF-β3 activity; for Emax: relative to TGF-β3 (10 ng/mL) positive control, read-out: Max. Activity as % TGF-β3 activity
Experimental: The above synthesized compounds were screened using primary human mesenchymal stem cells (hMSCs) to determine their ability to induce chondrogenesis (process by which cartilage is developed).
Primary human mesenchymal stem cells (hMSCs) were purchased from Lonza (Walkersville, Md.) and expanded in Mesenchymal Stem Cell Growth Media (Lonza). Cells between passage 3 and 6 were used for the experiments.
Each compound was dissolved in DMSO as a 10 mM stock and used to prepare compound source plates. Serial dilution (1:3, 6-point dose-response curves from 2700 nM to 10 nM) and compound transfer was performed using the ECHO 550 (Labcyte, Sunnyvale, Calif.) into 96-well clear bottom assay plates (Greiner Bio-One) with appropriate DMSO backfill for a final DMSO concentration of 0.03%. hMSCs were plated at 20,000 cells/well in 250 μL/well Incomplete Chondrogenic Induction Medium (Lonza; DMEM, dexamethasone, ascorbate, insulin-transferrin-selenium [ITS supplement], gentamycin-amphotericin [GA-1000], sodium pyruvate, proline and L-glutamine). TGF-β3 (10 ng/mL) was used as a positive control for differentiation while negative control wells were treated with 75 nL DMSO for normalization and calculating EC50 values. Cells were incubated at 37° C. and 5% CO2 for 6 days. To image chondrogenic nodules, the cells were fixed using 4% formaldehyde (Electron Microscopy Sciences), and stained with 2 μg/mL Rhodamine B (Sigma-Aldrich) and 20 μM Nile Red (Sigma-Aldrich) [Johnson K., et. al, A Stem Cell-Based Approach to Cartilage Repair, Science, (2012), 336(6082), 717-721]. The nodules imaged (4 images per well at 4× magnification) by excitation at 531 nm and emission at 625 nm and quantified using the CellInsight CX5 (Thermo Scientific). Number of nodules in each well was normalized to the average of 3 DMSO treated wells on the same plate using Excel (Microsoft Inc.). The normalized averages (fold change over DMSO) of 3 replicate wells for each compound concentration were calculated. Due to solubility limitations of some of the compounds, curve fitting was incomplete leading to inaccurate EC50 determinations.
Using TGF-03 as a positive control, the concentration of test compounds required to induce equivalent levels of chondrogenesis is reported. In addition, the maximum activity of each compound and the respective dose that each compound reached maximum chondrogenesis activity is reported.

[3] = tested on: primary human fibroblasts derived from IPF patients (LL29 cells); assay: Inhibition of fibrotic process: αSMA staining in TGF-β1-treated primary human fibroblasts from IPF patients (LL29 cells); conditions: Fibroblast, 96 h, LL29 cells treated with TGF-β1 (20 ng/mL), 4 days, 11-point dose-response from 10 μM to 1.87 nM, read-out: Inhibition of fibrosis EC50
In short: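 LL29 IPF lung fibroblasts in F12 with 1% FBS, compound (11-point, 10 μM to 1.87 nM, 0.1% DMSO) plus TGF-β1 20 ng/mL for 4 days at 37° C. αSMA-positive % of SYTOX-negative cells by immunofluorescence imaging, normalized to TGF-β1 wells; EC50 from non-linear regression of triplicates.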

Row | SMILES | IC50 [1] [nM] | EC (100% TGF-beta3 activity) [2] [nM] | Emax [2] [%] | EC50 [3] [nM]
1 | CCNCc1cncc(-c2cc3c(-c4nc5c(-c6cccc(F)c6)cncc5[nH]4)n[nH]c3cn2)c1 [Compound 6, N-((5-(3-(7-(3-Fluorophenyl)-3H-imidazo[4,5-c]pyridin-2-yl)-1H-pyrazolo[3,4-c]pyridin-5-yl)pyridin-3-yl)methyl)ethanamine] | 13.5 | 136 | 300 | 511
2 | CCNCc1cncc(-c2cc3c(-c4nc5c(-c6ccc(F)cc6)cncc5[nH]4)n[nH]c3cn2)c1 [Compound 32, N-((5-(3-(7-(4-Fluorophenyl)-3H-imidazo[4,5-c]pyridin-2-yl)-1H-pyrazolo[3,4-c]pyridin-5-yl)pyridin-3-yl)methyl)ethanamine] | 14.3 | 110 | – | ≤ 9
3 | FC1(F)CCN(Cc2cncc(-c3cc4c(-c5nc6c(N7CCCCC7)cncc6[nH]5)n[nH]c4cn3)c2)C1 [Compound 181, 5-(5-((3,3-Difluoropyrrolidin-1-yl)methyl)pyridin-3-yl)-3-(7-(piperidin-1-yl)-3H-imidazo[4,5-c]pyridin-2-yl)-1H-pyrazolo[3,4-c]pyridine] | 44.8 | 100 | 10 | ≤ 9
4 | CCCC(=O)Nc1cncc(-c2cc3c(-c4nc5c(-c6ccsc6)cncc5[nH]4)n[nH]c3cn2)c1 [Compound 251, N-(5-(3-(7-(Thiophen-3-yl)-3H-imidazo[4,5-c]pyridin-2-yl)-1H-pyrazolo[3,4-c]pyridin-5-yl)pyridin-3-yl)butyramide] | 33 | 42 | – | ≤ 9
5 | CCC(=O)Nc1cncc(-c2cc3c(-c4nc5c(-c6cccs6)cncc5[nH]4)n[nH]c3cn2)c1 [Compound 287, N-(5-(3-(7-(Thiophen-2-yl)-3H-imidazo[4,5-c]pyridin-2-yl)-1H-pyrazolo[3,4-c]pyridin-5-yl)pyridin-3-yl)propionamide] | 30.6 | 84.2 | 300 | 319
6 | CC(C)CC(=O)Nc1cncc(-c2cc3c(-c4nc5c(-c6ccc(F)s6)cncc5[nH]4)n[nH]c3cn2)c1 [Compound 314, N-(5-(3-(7-(5-Fluorothiophen-2-yl)-3H-imidazo[4,5-c]pyridin-2-yl)-1H-pyrazolo[3,4-c]pyridin-5-yl)pyridin-3-yl)-3-methylbutanamide] | 7.4 | 180 | 900 | 173
7 | CC(C)(C)C(=O)Nc1cncc(-c2cc3c(-c4nc5c(-c6ccc(F)s6)cncc5[nH]4)n[nH]c3cn2)c1 [Compound 320, N-(5-(3-(7-(5-Fluorothiophen-2-yl)-3H-imidazo[4,5-c]pyridin-2-yl)-1H-pyrazolo[3,4-c]pyridin-5-yl)pyridin-3-yl)pivalamide] | 3.7 | 41 | – | 103
8 | CC(C)CC(=O)Nc1cncc(-c2cc3c(-c4nc5c(-c6cc(O)cc(F)c6)cncc5[nH]4)n[nH]c3cn2)c1 [Compound 1280, N-(5-(3-(7-(3-Fluoro-5-hydroxyphenyl)-3H-imidazo[4,5-c]pyridin-2-yl)-1H-pyrazolo[3,4-c]pyridin-5-yl)pyridin-3-yl)-3-methylbutanamide] | > 10000 | – | – | ≤ 9
9 | COc1cc(F)cc(-c2cncc3[nH]c(-c4n[nH]c5cnc(-c6cncc(NC(=O)CC(C)C)c6)cc45)nc23)c1 [Compound 1324, N-(5-(3-(7-(3-Fluoro-5-methoxyphenyl)-3H-imidazo[4,5-c]pyridin-2-yl)-1H-pyrazolo[3,4-c]pyridin-5-yl)pyridin-3-yl)-3-methylbutanamide] | 547 | – | – | ≤ 9
10 | CN(C)CC(=O)Nc1cncc(-c2cc3c(-c4nc5c(-c6cccc(F)c6)cncc5[nH]4)n[nH]c3cn2)c1 [Compound 1367, 2-(Dimethylamino)-N-(5-(3-(7-(3-fluorophenyl)-3H-imidazo[4,5-c]pyridin-2-yl)-1H-pyrazolo[3,4-c]pyridin-5-yl)pyridin-3-yl)acetamide] | 512 | – | – | 144
